# Measured values published in PubChem BioAssay AID2060909 (Molecular Pharmacology Branch, DTP, NCI, 2025).
# Values joined by “and” are separate entries in the source; they are usually repeats but may differ in a detail not shown here. Equal values may be shown once.
# Test system: 362531-283-R-J2-PDC complex spheroid viability
# Assay: Anticancer human tumor 362531-283-R-J2-PDC patient-derived colon adenocarcinoma cell line growth inhibition [RAS]
# Conditions: for viability, T/C: stronger effect = lower value
# Procedure, shortened: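 Multi-cell-type spheroids: tumor cells plus HUVEC endothelial cells and mesenchymal stem cells. RAS-pathway inhibitors were combined with targeted agents, each dosed in half-log steps down from clinical Cmax, or from 10 microM when Cmax was unknown.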
# [1] = curve of first compound, second compound 0.0316 µM
# [2] = curve of first compound, second compound 0.1 µM
# [3] = curve of first compound, second compound 0.316 µM
# [4] = curve of first compound, second compound 1 µM
# [5] = second compound 0.0316 µM, first compound 0.00316 µM
# [6] = second compound 0.0316 µM, first compound 0.01 µM
# [7] = second compound 0.0316 µM, first compound 0.0316 µM
# [8] = second compound 0.0316 µM, first compound 0.1 µM
# [9] = second compound 0.0316 µM, first compound 0.316 µM
# [10] = second compound 0.0316 µM, first compound 1 µM
# [11] = second compound 0.1 µM, first compound 0.00316 µM
# [12] = second compound 0.1 µM, first compound 0.01 µM
# [13] = second compound 0.1 µM, first compound 0.0316 µM
# [14] = second compound 0.1 µM, first compound 0.1 µM
# [15] = second compound 0.1 µM, first compound 0.316 µM
# [16] = second compound 0.1 µM, first compound 1 µM
# [17] = second compound 0.316 µM, first compound 0.00316 µM
# [18] = second compound 0.316 µM, first compound 0.01 µM
# [19] = second compound 0.316 µM, first compound 0.0316 µM
# [20] = second compound 0.316 µM, first compound 0.1 µM
# [21] = second compound 0.316 µM, first compound 0.316 µM
# [22] = second compound 0.316 µM, first compound 1 µM
# [23] = second compound 1 µM, first compound 0.00316 µM
# [24] = second compound 1 µM, first compound 0.01 µM
# [25] = second compound 1 µM, first compound 0.0316 µM
# [26] = second compound 1 µM, first compound 0.1 µM
# [27] = second compound 1 µM, first compound 0.316 µM
# [28] = second compound 1 µM, first compound 1 µM
# 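Further: spheroids exposed to the agents for 7 days before readout.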
# 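Wherever viability, T/C is given: luminescence viability as percent of DMSO vehicle control wells.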
smiles,measurement,setting,value
O=C(c1ccc(F)c(F)c1Nc1ccc(I)cc1F)N1CC(O)([C@@H]2CCCCN2)C1 + C=CC(=O)N1CCN(c2nc(OCC3CCCN3C)nc3c(F)c(-c4nc(N)cc(C)c4C(F)(F)F)c(Cl)cc23)C(C)C1,IC50,"curve of first compound, second compound 0.00316 µM",0.363 µM
same,IC50,"curve of first compound, second compound 0.01 µM",0.399 µM
same,IC50,[1],0.306 µM
same,IC50,[2],0.368 µM
same,IC50,[3],0.377 µM
same,IC50,[4],0.349 µM
same,"viability, T/C","second compound 0.00316 µM, first compound 0.00316 µM",94.4%
same,"viability, T/C","second compound 0.00316 µM, first compound 0.01 µM",111%
same,"viability, T/C","second compound 0.00316 µM, first compound 0.0316 µM",93.1%
same,"viability, T/C","second compound 0.00316 µM, first compound 0.1 µM",84.8%
same,"viability, T/C","second compound 0.00316 µM, first compound 0.316 µM",56.6%
same,"viability, T/C","second compound 0.00316 µM, first compound 1 µM",4.22%
same,"viability, T/C","second compound 0.01 µM, first compound 0.00316 µM",100%
same,"viability, T/C","second compound 0.01 µM, first compound 0.01 µM",95.3%
same,"viability, T/C","second compound 0.01 µM, first compound 0.0316 µM",97%
same,"viability, T/C","second compound 0.01 µM, first compound 0.1 µM",83.9%
same,"viability, T/C","second compound 0.01 µM, first compound 0.316 µM",61.4%
same,"viability, T/C","second compound 0.01 µM, first compound 1 µM",6.87%
same,"viability, T/C",[5],103%
same,"viability, T/C",[6],99.2%
same,"viability, T/C",[7],95.1%
same,"viability, T/C",[8],80.8%
same,"viability, T/C",[9],48.9%
same,"viability, T/C",[10],10.1%
same,"viability, T/C",[11],101%
same,"viability, T/C",[12],97.5%
same,"viability, T/C",[13],88.8%
same,"viability, T/C",[14],79.6%
same,"viability, T/C",[15],59.6%
same,"viability, T/C",[16],4.51%
same,"viability, T/C",[17],99.7%
same,"viability, T/C",[18],97.6%
same,"viability, T/C",[19],91.9%
same,"viability, T/C",[20],81.9%
same,"viability, T/C",[21],58.3%
same,"viability, T/C",[22],6.58%
same,"viability, T/C",[23],101%
same,"viability, T/C",[24],94.7%
same,"viability, T/C",[25],81.1%
same,"viability, T/C",[26],79.7%
same,"viability, T/C",[27],55.5%
same,"viability, T/C",[28],8.33%
C=CC(=O)Nc1cc(Nc2nccc(-c3cn(C)c4ccccc34)n2)c(OC)cc1N(C)CCN(C)C + CCn1c(-c2cc(N3CCN(C)CC3)cnc2C(C)OC)c2c3cc(ccc31)-c1csc(n1)CC(NC(=O)C1CC1C)C(=O)N1CCCC(N1)C(=O)OCC(C)(C)C2,IC50,"curve of first compound, second compound 0.000949 µM",> 1 µM
same,IC50,"curve of first compound, second compound 0.003 µM",> 1 µM
same,IC50,"curve of first compound, second compound 0.00949 µM",0.606 µM
same,IC50,"curve of first compound, second compound 0.03 µM",0.464 µM
same,IC50,"curve of first compound, second compound 0.0949 µM",0.129 µM
same,IC50,"curve of first compound, second compound 0.3 µM",< 0.00316 µM
same,"viability, T/C","second compound 0.000949 µM, first compound 0.00316 µM",87.5%
same,"viability, T/C","second compound 0.000949 µM, first compound 0.01 µM",104%
same,"viability, T/C","second compound 0.000949 µM, first compound 0.0316 µM",91.4%
same,"viability, T/C","second compound 0.000949 µM, first compound 0.1 µM",88%
same,"viability, T/C","second compound 0.000949 µM, first compound 0.316 µM",98.2%
same,"viability, T/C","second compound 0.000949 µM, first compound 1 µM",65.6%
same,"viability, T/C","second compound 0.003 µM, first compound 0.00316 µM",97.7%
same,"viability, T/C","second compound 0.003 µM, first compound 0.01 µM",94.6%
same,"viability, T/C","second compound 0.003 µM, first compound 0.0316 µM",94.6%
same,"viability, T/C","second compound 0.003 µM, first compound 0.1 µM",89.3%
same,"viability, T/C","second compound 0.003 µM, first compound 0.316 µM",91.9%
same,"viability, T/C","second compound 0.003 µM, first compound 1 µM",63.1%
same,"viability, T/C","second compound 0.00949 µM, first compound 0.00316 µM",93.3%
same,"viability, T/C","second compound 0.00949 µM, first compound 0.01 µM",115%
same,"viability, T/C","second compound 0.00949 µM, first compound 0.0316 µM",81.1%
same,"viability, T/C","second compound 0.00949 µM, first compound 0.1 µM",78.9%
same,"viability, T/C","second compound 0.00949 µM, first compound 0.316 µM",80.4%
same,"viability, T/C","second compound 0.00949 µM, first compound 1 µM",31.4%
same,"viability, T/C","second compound 0.03 µM, first compound 0.00316 µM",92.2%
same,"viability, T/C","second compound 0.03 µM, first compound 0.01 µM",91.8%
same,"viability, T/C","second compound 0.03 µM, first compound 0.0316 µM",83%
same,"viability, T/C","second compound 0.03 µM, first compound 0.1 µM",85.6%
same,"viability, T/C","second compound 0.03 µM, first compound 0.316 µM",69.6%
same,"viability, T/C","second compound 0.03 µM, first compound 1 µM",11.8%
same,"viability, T/C","second compound 0.0949 µM, first compound 0.00316 µM",81.3%
same,"viability, T/C","second compound 0.0949 µM, first compound 0.01 µM",75.4%
same,"viability, T/C","second compound 0.0949 µM, first compound 0.0316 µM",76.5%
same,"viability, T/C","second compound 0.0949 µM, first compound 0.1 µM",59.2%
same,"viability, T/C","second compound 0.0949 µM, first compound 0.316 µM",18.5%
same,"viability, T/C","second compound 0.0949 µM, first compound 1 µM",10.8%
same,"viability, T/C","second compound 0.3 µM, first compound 0.00316 µM",42.3%
same,"viability, T/C","second compound 0.3 µM, first compound 0.01 µM",38.4%
same,"viability, T/C","second compound 0.3 µM, first compound 0.0316 µM",32.7%
same,"viability, T/C","second compound 0.3 µM, first compound 0.1 µM",23%
same,"viability, T/C","second compound 0.3 µM, first compound 0.316 µM",10.8%
same,"viability, T/C","second compound 0.3 µM, first compound 1 µM",8.2%
O=C(c1ccc(F)c(F)c1Nc1ccc(I)cc1F)N1CC(O)([C@@H]2CCCCN2)C1 + C#Cc1c(F)ccc2cc(O)cc(-c3ncc4c(N5CC6CCC(C5)N6)nc(OCC56CCCN5CC(F)C6)nc4c3F)c12,IC50,[1],0.413 µM
same,IC50,[2],0.35 µM
same,IC50,[3],0.35 µM
same,IC50,[4],0.181 µM
same,IC50,"curve of first compound, second compound 3.16 µM",0.0372 µM
same,IC50,"curve of first compound, second compound 10 µM",< 0.00316 µM
same,"viability, T/C",[5],97.9%
same,"viability, T/C",[6],101%
same,"viability, T/C",[7],101%
same,"viability, T/C",[8],88.1%
same,"viability, T/C",[9],62.9%
same,"viability, T/C",[10],8.48%
same,"viability, T/C",[11],97.6%
same,"viability, T/C",[12],98.4%
same,"viability, T/C",[13],95.5%
same,"viability, T/C",[14],72.1%
same,"viability, T/C",[15],57.6%
same,"viability, T/C",[16],4.9%
same,"viability, T/C",[17],90.1%
same,"viability, T/C",[18],88.1%
same,"viability, T/C",[19],78.1%
same,"viability, T/C",[20],66.3%
same,"viability, T/C",[21],61.3%
same,"viability, T/C",[22],3.76%
same,"viability, T/C",[23],82.6%
same,"viability, T/C",[24],78.6%
same,"viability, T/C",[25],78.2%
same,"viability, T/C",[26],79.1%
same,"viability, T/C",[27],22.9%
same,"viability, T/C",[28],3.27%
same,"viability, T/C","second compound 3.16 µM, first compound 0.00316 µM",65.4%
same,"viability, T/C","second compound 3.16 µM, first compound 0.01 µM",60.5%
same,"viability, T/C","second compound 3.16 µM, first compound 0.0316 µM",56.5%
same,"viability, T/C","second compound 3.16 µM, first compound 0.1 µM",10.6%
same,"viability, T/C","second compound 3.16 µM, first compound 0.316 µM",9.05%
same,"viability, T/C","second compound 3.16 µM, first compound 1 µM",1.7%
same,"viability, T/C","second compound 10 µM, first compound 0.00316 µM",28%
same,"viability, T/C","second compound 10 µM, first compound 0.01 µM",31.1%
same,"viability, T/C","second compound 10 µM, first compound 0.0316 µM",13.9%
same,"viability, T/C","second compound 10 µM, first compound 0.1 µM",9.85%
same,"viability, T/C","second compound 10 µM, first compound 0.316 µM",6.01%
same,"viability, T/C","second compound 10 µM, first compound 1 µM",1.71%
CCC(CC)c1cc(NC2CCC(N)C2)n2nccc2n1 (stereo not drawn),"viability, T/C",compound 0.0316 µM,106% [middle of 4 runs]
same,"viability, T/C",compound 0.1 µM,94% and 100% and 104% (2×)
same,"viability, T/C",compound 0.316 µM,101% [middle of 4 runs]
same,"viability, T/C",compound 1 µM,94.1% [middle of 4 runs]
same,"viability, T/C",compound 3.16 µM,74.8% [middle of 4 runs]
same,"viability, T/C",compound 10 µM,3.99% [middle of 4 runs]
same,IC50,curve of compound,4.62 µM [middle of 4 runs]
